Test results: US12077522B2, “Heterocyclic compound and application thereof” (Takeda Pharmaceutical Company Limited, priority 2018, dated 2024)

Target: T1, human orexin type 2 receptor (Homo sapiens, UniProt O43614)
T1 construct: expressed in transfected cells
T1 sequence (O43614 1-444): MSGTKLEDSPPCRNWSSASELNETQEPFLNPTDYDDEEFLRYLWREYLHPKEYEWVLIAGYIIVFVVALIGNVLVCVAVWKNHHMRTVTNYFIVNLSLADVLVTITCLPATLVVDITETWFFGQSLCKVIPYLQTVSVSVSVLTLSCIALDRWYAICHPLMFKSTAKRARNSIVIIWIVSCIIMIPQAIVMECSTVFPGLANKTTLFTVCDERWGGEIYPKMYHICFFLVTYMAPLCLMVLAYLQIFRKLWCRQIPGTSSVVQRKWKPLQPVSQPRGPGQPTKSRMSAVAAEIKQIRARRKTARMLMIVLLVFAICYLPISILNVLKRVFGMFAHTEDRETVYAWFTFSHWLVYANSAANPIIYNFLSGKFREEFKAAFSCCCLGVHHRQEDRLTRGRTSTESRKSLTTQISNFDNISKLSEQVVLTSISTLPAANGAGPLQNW
Assay: Measurement of orexin type 2 receptor agonist activity (calcium fluorescence, Fluo-4 AM, FDSS)
Type: cell-based
Conditions: compound at 3 μM; CHO cells forcibly expressing human OX2 receptor; DMSO = 0%, orexin A (human) 10 nM = 100%
Excerpt: To obtain a cell clone stably expressing human orexin type 2 receptor, human orexin type 2 receptor cDNA was inserted into pcDNA3.1(+) plasmid vector (Invitrogen), and a plasmid DNA for expression of human orexin type 2 receptor (pcDNA3.1(+)/hOX2R) was cloned. The plasmid DNA was introduced into CHO-dhfr cell by an electroporation method, and human orexin type 2 receptor expressing clone cells were obtained by limiting dilution method by using G418 drug resistance as a selection marker.
CHO cells forcibly expressing human OX2 receptor were seeded in each well of 384 well black transparent bottom plate (BD Falcon) at 7,500 cells/well, and cultured for one day in a 5% CO2 incubator at 37° C. After removal of the medium in the cell plate, assay buffer A containing a calcium indicator (HBSS (Thermo Fisher Scientific), 20 mM HEPES (Thermo Fisher Scientific), 0.1% BSA (Wako Pure Chemical Industries, Ltd. or Sigma-Aldrich), 2.5 μg/mL Fluo-4 AM (DOJINDO Chemical), 0.08% Pluronic F127 (DOJINDO Chemical), 1.25 mM probenecid (DOJINDO Chemical)) was added at 30 μL/well. The plate was stood for 30 min in a 5% CO2 incubator at 37° C., and further stood at room temperature for 30 min. A test compound prepared by diluting with assay buffer B (HBSS, 20 mM HEPES, 0.1% BSA) was added at […], and the fluorescence value was measured by FDSSpCELL (Hamamatsu Photonics K.K.) every one sec for 1 min, and thereafter every two sec for 1 min 40 sec. The activity (%) of the test compound was calculated assuming that variation in the fluorescence value when DMSO was added instead of the test compound was 0%, and variation in the fluorescence value when orexin A (human) (PEPTIDE INSTITUTE, INC.) was added at the final concentration of 10 nM was 100%. The activity of each compound at the concentration of 3 μM was shown below.

SMILES | OX2R agonist activity (3 μ M, %) [%]
O=C(NC1CCCN(C(=O)C2(O)CCC2)C1COC1CCN(c2ncc(F)cn2)CC1)[C@@H]1CCCO1 (stereo in doubt) [Example 14, (2S)-N-[cis-2-({[1-(5-fluoropyrimidin-2-yl)piperidin-4-yl]oxy}methyl)-1-(1-hydroxycyclobutane-1-carbonyl)piperidin-3-yl]oxolane-2-carboxamide] | 92
O=C(NC1CCCN(C(=O)N2CCC2)C1COC1CCN(c2ncc(F)cn2)CC1)[C@@H]1CCCO1 (stereo in doubt) [Example 8, (2S)-N-[cis-1-(azetidine-1-carbonyl)-2-({[1-(5-fluoropyrimidin-2-yl)piperidin-4-yl]oxy}methyl)piperidin-3-yl]oxolane-2-carboxamide] | 83
O=C(NC1CCCN(C(=O)C2CCC2)C1COC1CCN(c2ncc(F)cn2)CC1)[C@@H]1CCCO1 (stereo in doubt) [Example 12, (2S)-N-[cis-1-(cyclobutanecarbonyl)-2-({[1-(5-fluoropyrimidin-2-yl)piperidin-4-yl]oxy}methyl)piperidin-3-yl]oxolane-2-carboxamide] | 99
CN(C)C(=O)C(=O)NC1CCCN(C(=O)C2CCC2)C1COC1CCN(c2ncc(F)cn2)CC1 (stereo not drawn) [Example 4, N^~2^~- [cis-1-(cyclobutanecarbonyl)-2-({[1-(5-fluoropyrimidin-2-yl)piperidin-4-yl]oxy}methyl)piperidin-3-yl]-N^~1^~,N^~1^~-dimethylethanediamide] | 84
O=C(NC1CCCN(C(=O)C2(O)CCC2)C1COC1CCN(c2ncccn2)CC1)[C@@H]1CCCO1 (stereo in doubt) [Example 13, (2S)-N-[cis-1-(1-hydroxycyclobutane-1-carbonyl)-2-({[1-(pyrimidin-2-yl)piperidin-4-yl]oxy}methyl)piperidin-3-yl]oxolane-2-carboxamide] | 81
O=C(NC1CCCN(C(=O)N2CCC2)C1COC1CCN(c2ncccn2)CC1)[C@@H]1CCCO1 (stereo in doubt) [Example 7, (2S)-N-[cis-1-(azetidine-1-carbonyl)-2-({[1-(pyrimidin-2-yl)piperidin-4-yl]oxy}methyl)piperidin-3-yl]oxolane-2-carboxamide] | 67
O=C(NC1CCCN(C(=O)C2CCC2)C1COC1CCN(c2ncccn2)CC1)[C@@H]1CCCO1 (stereo in doubt) [Example 11, (2S)-N-[cis-1-(cyclobutanecarbonyl)-2-({[1-(pyrimidin-2-yl)piperidin-4-yl]oxy}methyl)piperidin-3-yl]oxolane-2-carboxamide] | 94

Continued, values first:

OX2R agonist activity (3 μ M, %) [%] | SMILES
98 | CCNC(=O)N1CCCC(NC(=O)C(=O)N(C)C)C1CO[C@H]1CC[C@@H](c2ccccc2)CC1 (stereo partly drawn) [Example 18, N^~2^~-[cis-1-(ethylcarbamoyl)-2-({[cis-4-phenylcyclohexyl]oxy}methyl)piperidin-3-yl]-N^~1^~,N^~1^~- dimethylethanediamide]
102 | CCNC(=O)N1CCCC(NC(=O)C(=O)N(C)C)C1CO[C@H]1CC[C@@H](c2cccc(F)c2)CC1 (stereo partly drawn) [Example 21, N^~2^~-[cis-1-(ethylcarbamoyl)-2-({[cis-4-(3-fluorophenyl)cyclohexyl]oxy}methyl)piperidin-3-yl]-N^~1^~,N^~1^~- dimethylethanediamide]
96 | CC(C)OC(=O)N1CCCC(NC(=O)[C@@H]2CCCO2)C1COC1CCN(c2ncccn2)CC1 (stereo in doubt) [Example 15, propan-2-yl cis-3-{[(2S)-oxolane-2-carbonyl]amino}-2-({[1-(pyrimidin-2-yl)piperidin-4-yl]oxy}methyl)piperidine-1-carboxylate]
95 | CC(C)OC(=O)N1CCCC(NC(=O)[C@@H]2CCCO2)C1COC1CCN(c2ncc(F)cn2)CC1 (stereo in doubt) [Example 16, propan-2-yl cis-2-({[1-(5-fluoropyrimidin-2-yl)piperidin-4-yl]oxy}methyl)-3-{[(2S)-oxolane-2-carbonyl]amino}piperidine-1-carboxylate]
99 | CCNC(=O)N1CCCC(NC(=O)C(=O)N(C)C)C1CO[C@H]1CC[C@@H](c2ccccc2F)CC1 (stereo partly drawn) [Example 22, N^~2^~-[cis-1-(ethylcarbamoyl)-2-({[cis-4-(2-fluorophenyl)cyclohexyl]oxy}methyl)piperidin-3-yl]-N^~1^~,N^~1^~- dimethylethanediamide]
75 | CCNC(=O)N1CCCC(NC(=O)C(=O)N(C)C)C1CO[C@H]1CC[C@@H](c2ccc(F)cc2)CC1 (stereo partly drawn) [Example 19, N^~2^~-[cis-1-(ethylcarbamoyl)-2-({[cis-4-(4-fluorophenyl)cyclohexyl]oxy}methyl)piperidin-3-yl]-N^~1^~,N^~1^~- dimethylethanediamide]
